Test results: patent US20100061928A1, “LABELLED ANALOGUES OF HALOBENZAMIDES AS RADIOPHARMACEUTICALS” (Institut National De La Sante et De La Recherche Medicale …, priority 2006, published 2010)
Structures can show the parent of a compound that is named as a salt.

What was measured:
[1] = Elimination of the molecules: cumulative urinary and faecal excretion 0-72 hours; assay type: in vivo, mouse; conditions: cumulative excretion 0-72 hours; for Faecal elimination 0-72 hours (Faeces) / Urinary elimination 0-72 hours (Urine): mice in metabolic cages; for Urinary and faecal elimination 0-72 hours (Total): urine + faeces
tumour = assay: Dosimetry with regard to the tumour (MIRD programme, extrapolated to ^131I); conditions: for Effective period: extrapolated to 131I labelling; for Biological period: from biodistribution data
[2] = tested on: grafted B16 F0 murine melanoma tumour; assay: Biodistribution of the ^125I-labelled molecules in the melanoma-bearing mouse (autoradiography of whole-body sections); conditions: for Biodistribution, Mean, B 16: B 16 tumour; for tumour concentration, times higher than with BZA: at 72 hours (FIG. 1B)
Method: The distribution of the radioactivity of the various compounds in the body (tumour and other organs) is quantified using an Ambis 4000 image analyzer on sections of whole animals. […] All the in vivo experimentation is carried out within the context defined by French legislation relating to animal experimentation.
The B16 F0 melanoma cells are provided by the ATCC and cultured in monolayers in culture medium (MEM, Invitrogen) supplemented with 10% foetal calf serum and antibiotics. The cultures are maintained by subculturing after trypsinization. The cells of the first passages are frozen and stored in liquid nitrogen. For the transplanting, the cells in culture at confluence are detached by trypsinization and washed with phosphate buffer (PBS).
The distribution of the radioactivity present in the sections is analyzed using an AMBIS 4000 analyzer (Scanalytics, CSPI, San Diego, Calif.), which is a proportional counter with a multiwire chamber validated and calibrated beforehand for the monitoring of iodine in the mouse. The measurements require acquisition times of 1000 minutes. […] The value of radioactivity per unit of surface area (cpm/mm^2) is converted to concentration (kBq/g) and expressed as percentage of the injected dose/g of tissue (% ID/g).

SMILES: CCCN(CCC)CCCCNC(=O)c1ccc2cc(I)ccc2n1 [compound 49, N-(4-dipropylaminobutyl)-6-iodoquinoline-2-carboxamide dihydrochloride]
- Faecal elimination 0-72 hours (Faeces) [1]: 19.9%
- Urinary and faecal elimination 0-72 hours (Total) [1]: 87.1%
- Urinary elimination 0-72 hours (Urine) [1]: 67.2%
- Effective period (tumour): 51.2 h
- Biological period (tumour): 69.7 hours
- Biodistribution, Mean, B 16 ([2]; 1 H): 19.07
- Biodistribution, Mean, B 16 ([2]; 3 H): 20.34
- Biodistribution, Mean, B 16 ([2]; 6 H): 27.38
- Biodistribution, Mean, B 16 ([2]; 24 H): 18.28
- Biodistribution, Mean, B 16 ([2]; 72 H): 10.86
- Biodistribution, Mean, GB ([2]; 3 H): 50.82
- Biodistribution, Mean, GB ([2]; 6 H): 55.80
- Biodistribution, Mean, Ic ([2]; 1 H): 24.45
- Biodistribution, Mean, Ic ([2]; 3 H): 23.54
- Biodistribution, Mean, Ic ([2]; 6 H): 26.72
- Biodistribution, Mean, Ic ([2]; 24 H): 1.21
- Biodistribution, Mean, Sc ([2]; 1 H): 25.53
- Biodistribution, Mean, Sc ([2]; 3 H): 24.89
- Biodistribution, Mean, Sc ([2]; 6 H): 22.21
- Biodistribution, Mean, Sc ([2]; 24 H): 2.16
- tumour concentration, times higher than with BZA [2]: 14 times
- Biodistribution, Mean, blood ([2]; 1 H): 3.31
- Biodistribution, Mean, blood ([2]; 3 H): 3.47
- Biodistribution, Mean, blood ([2]; 6 H): 2.50
- tumour concentration, % of the injected dose per gram of tumour ([2]; from the first hour): 19.1 % ID/g
- Biodistribution, Mean, kidney ([2]; 1 H): 18.29
- Biodistribution, Mean, kidney ([2]; 3 H): 13.10
- Biodistribution, Mean, kidney ([2]; 6 H): 7.98
- Biodistribution, Mean, liver ([2]; 1 H): 13.79
- Biodistribution, Mean, liver ([2]; 3 H): 7.77
- Biodistribution, Mean, liver ([2]; 6 H): 3.89
- Biodistribution, Mean, lungs ([2]; 1 H): 8.33
- Biodistribution, Mean, lungs ([2]; 3 H): 6.88
- Biodistribution, Mean, lungs ([2]; 6 H): 3.34
- Biodistribution, Mean, muscle ([2]; 1 H): 2.00
- Biodistribution, Mean, muscle ([2]; 3 H): 1.41
- Biodistribution, Mean, muscle ([2]; 6 H): 0.45
- Biodistribution, Mean, pancreas ([2]; 1 H): 21.47
- Biodistribution, Mean, pancreas ([2]; 3 H): 9.71
- Biodistribution, Mean, spleen ([2]; 1 H): 18.88
- Biodistribution, Mean, spleen ([2]; 3 H): 16.71
- Biodistribution, Mean, thyroid ([2]; 1 H): 28.75
- Biodistribution, Mean, thyroid ([2]; 3 H): 125.51
- Biodistribution, Mean, thyroid ([2]; 6 H): 16.38
- Biodistribution, Mean, thyroid ([2]; 72 H): 53.26
- Biodistribution, Mean, uvea ([2]; 1 H): 21.04
- Biodistribution, Mean, uvea ([2]; 3 H): 31.76
- Biodistribution, Mean, uvea ([2]; 6 H): 28.78
- Biodistribution, Mean, uvea ([2]; 24 H): 19.22
- Biodistribution, Mean, uvea ([2]; 72 H): 19.78

SMILES: CCN(CC)CCNC(=O)c1cccc2c(=O)c3cc(I)ccc3[nH]c12 [compound 84, N-(2-diethylaminoethyl)-9,10-dihydro-7-iodo-9-oxoacridine-4-carboxamide hydrochloride]
- Faecal elimination 0-72 hours (Faeces) [1]: 38.4%
- Urinary and faecal elimination 0-72 hours (Total) [1]: 48.8%
- Urinary elimination 0-72 hours (Urine) [1]: 10.4%
- Effective period (tumour): 112.5 h
- Biological period (tumour): 268.9 hours
- tumour concentration, times higher than with BZA [2]: 22 times

SMILES: CCN(CC)CCNC(=O)c1ccc2cncc(I)c2n1.Cl.Cl [compound 142, N-(2-diethylaminoethyl)-8-iodo-1,6-naphthyridine-2-carboxamide dihydrochloride]
- Faecal elimination 0-72 hours (Faeces) [1]: 29.4%
- Urinary and faecal elimination 0-72 hours (Total) [1]: 98.3%
- Urinary elimination 0-72 hours (Urine) [1]: 68.9%
- Effective period (tumour): 26.1 h
- Biological period (tumour): 30.2 hours
- Biodistribution, Mean, B 16 ([2]; 1 H): 23.22
- Biodistribution, Mean, B 16 ([2]; 3 H): 13.87
- Biodistribution, Mean, B 16 ([2]; 6 H): 11.42
- Biodistribution, Mean, B 16 ([2]; 24 H): 8.37
- Biodistribution, Mean, B 16 ([2]; 72 H): 3.31
- Biodistribution, Mean, GB ([2]; 3 H): 41.51
- Biodistribution, Mean, GB ([2]; 6 H): 28.67
- Biodistribution, Mean, Ic ([2]; 1 H): 32.83
- Biodistribution, Mean, Ic ([2]; 3 H): 47.65
- Biodistribution, Mean, Ic ([2]; 6 H): 43.48
- Biodistribution, Mean, Ic ([2]; 24 H): 0.82
- Biodistribution, Mean, Sc ([2]; 1 H): 17.58
- Biodistribution, Mean, Sc ([2]; 3 H): 9.76
- Biodistribution, Mean, Sc ([2]; 6 H): 9.17
- Biodistribution, Mean, Sc ([2]; 24 H): 0.62
- Biodistribution, Mean, Sc ([2]; 72 H): 2.13
- tumour concentration (in words) ([2]; ^125I-labelled compound, melanoma-bearing mouse): very high tumour concentration from one hour
- Biodistribution, Mean, blood ([2]; 1 H): 2.21
- Biodistribution, Mean, blood ([2]; 3 H): 1.88
- Biodistribution, Mean, blood ([2]; 6 H): 1.36
- Biodistribution, Mean, brain ([2]; brain, 1 H): 0.35
- Biodistribution, Mean, kidney ([2]; 1 H): 4.01
- Biodistribution, Mean, kidney ([2]; 3 H): 1.51
- Biodistribution, Mean, kidney ([2]; 6 H): 1.20
- Biodistribution, Mean, liver ([2]; 1 H): 3.92
- Biodistribution, Mean, liver ([2]; 3 H): 2.27
- Biodistribution, Mean, liver ([2]; 6 H): 1.49
- Biodistribution, Mean, lungs ([2]; 1 H): 2.36
- Biodistribution, Mean, lungs ([2]; 3 H): 1.87
- Biodistribution, Mean, lungs ([2]; 6 H): 1.26
- Biodistribution, Mean, muscle ([2]; 1 H): 0.86
- Biodistribution, Mean, muscle ([2]; 3 H): 0.43
- Biodistribution, Mean, muscle ([2]; 6 H): 0.24
- Biodistribution, Mean, pancreas ([2]; 1 H): 1.78
- Biodistribution, Mean, spleen ([2]; 1 H): 5.38
- Biodistribution, Mean, spleen ([2]; 3 H): 0.93
- Biodistribution, Mean, thyroid ([2]; 1 H): 20.16
- Biodistribution, Mean, thyroid ([2]; 3 H): 41.44
- Biodistribution, Mean, thyroid ([2]; 6 H): 56.95
- Biodistribution, Mean, thyroid ([2]; 24 H): 115.66
- Biodistribution, Mean, uvea ([2]; 1 H): 24.11
- Biodistribution, Mean, uvea ([2]; 3 H): 20.30
- Biodistribution, Mean, uvea ([2]; 6 H): 13.15
- Biodistribution, Mean, uvea ([2]; 24 H): 10.00
- Biodistribution, Mean, uvea ([2]; 72 H): 13.06
